Measurements published in patent US20230190950A1, “COMPOSITIONS AND METHODS FOR THE TREATMENT OF BACTERIAL INFECTIONS” (Cidara Therapeutics, Inc., priority 2017, published 2023).

How the values were obtained:
Conditions in all cases: 40% blood, 90 min
AB 5075 COL^S = test: MBC in human blood, AB 5075; assay type: cell-based, Acinetobacter baumannii
Protocol: (§1) Overnight stationary-phase cultures were centrifuged at 3,500×g for 10 min at room temperature and resuspended in 1×PBS to an optical density at 600 nm (OD600) of 0.4 (1×10^8 colony forming units [CFU]/mL) in RPMI with L-glutamine and phenol red (Life Technologies). […] MBC was defined as the minimum conjugate concentration required for complete bacterial clearance. An untreated growth control (40% blood, 0 μg/mL conjugate) was included in all assays.
(§2) Overnight stationary-phase cultures were centrifuged at 3,500×g for 10 min at room temperature and resuspended in 1×PBS to an optical density at 600 nm (OD600) of 0.4 (1×10^8 colony forming units [CFU]/ml) in RPMI with L-glutamine and phenol red (Life Technologies). Bacteria were diluted 1:25 in RPMI (4×10^6 CFU/ml) and 10 ul added to wells of a non-binding 96-well plate (Corning 3641) containing 80 ul of 50% hirudin anti-coagulated blood (complement active) in RPMI. […] MBC was defined as the minimum conjugate concentration required for bacterial clearance (Table 8A and Table 8B). An untreated growth control (40% blood, 0 ug/ml conjugate) was included in all assays as a growth comparator.

PA 7874 COL^R = test: MBC in human blood, PA 7874; assay type: cell-based, Pseudomonas aeruginosa
Protocol: as §1, §2

EC 25922 COL^S = test: MBC in human blood, EC 25922; assay type: cell-based, Escherichia coli
Protocol: as §1, §2

PA 01 COL^S = test: MBC in human blood, PA 01; assay type: cell-based, Pseudomonas aeruginosa
Protocol: as §1, §2

hIgG1 Fc: "h-IgG1 Fc (SEQ ID NO: 4)", "MW=54,731 Da"; the unconjugated Fc used as starting protein
>128 µg/mL: MBC in human hirudin-anticoagulated blood, A. baumannii AB5075 (AB 5075 COL^S) | MBC in human hirudin-anticoagulated blood, P. aeruginosa PA7874 (PA 7874 COL^R) | MBC in human hirudin-anticoagulated blood, E. coli ATCC 25922 (EC 25922 COL^S) | MBC in human hirudin-anticoagulated blood, P. aeruginosa PAO1 (PA 01 COL^S)
